Results published in ChEMBL document CHEMBL5696442, “Discovery of type II inhibitors of TGFβ-activated kinase 1 (TAK1) and mitogen-activated protein kinase kinase kinase kinase 2 (MAP4K2)” (J Med Chem, 2015).
Active and inactive are the calls of the source. No cut-off for these calls is given here.

Key:
[1] = molecular target: Tyrosine-protein kinase Fes/Fps (Homo sapiens, UniProt P07332); experiment: Inhibition of FES K1 labeling site in human Huh-7 cells at 1 uM by KiNativ Profiling analysis relative to control; format: cell-based
Chain of Tyrosine-protein kinase Fes/Fps (P07332 whole entry): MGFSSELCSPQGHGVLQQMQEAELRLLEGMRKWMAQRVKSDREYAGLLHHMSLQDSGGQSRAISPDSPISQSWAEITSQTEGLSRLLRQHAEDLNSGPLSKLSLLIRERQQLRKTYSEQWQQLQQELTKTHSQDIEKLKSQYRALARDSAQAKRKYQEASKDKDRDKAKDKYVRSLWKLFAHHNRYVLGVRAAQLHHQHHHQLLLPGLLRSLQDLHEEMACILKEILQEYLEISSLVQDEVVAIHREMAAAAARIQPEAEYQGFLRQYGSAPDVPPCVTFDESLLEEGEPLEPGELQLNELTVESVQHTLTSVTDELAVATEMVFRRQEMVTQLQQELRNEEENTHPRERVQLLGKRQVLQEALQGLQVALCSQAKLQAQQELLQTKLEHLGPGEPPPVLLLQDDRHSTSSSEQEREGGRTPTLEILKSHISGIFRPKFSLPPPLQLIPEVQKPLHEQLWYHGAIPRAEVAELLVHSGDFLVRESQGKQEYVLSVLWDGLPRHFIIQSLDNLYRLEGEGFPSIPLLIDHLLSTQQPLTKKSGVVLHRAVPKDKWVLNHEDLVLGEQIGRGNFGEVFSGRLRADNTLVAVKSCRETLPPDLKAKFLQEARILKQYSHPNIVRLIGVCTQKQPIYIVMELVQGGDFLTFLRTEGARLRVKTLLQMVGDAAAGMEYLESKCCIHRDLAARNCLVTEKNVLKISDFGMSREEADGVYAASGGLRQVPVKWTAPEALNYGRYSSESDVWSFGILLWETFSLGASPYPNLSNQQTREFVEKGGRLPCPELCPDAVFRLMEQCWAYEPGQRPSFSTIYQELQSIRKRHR

[2] = Inhibition of KHS1/2 K2 labeling site in human Huh-7 cells at 10 uM by KiNativ Profiling analysis relative to control; conditions: condition cancer
[3] = molecular target: Ribosomal protein S6 kinase alpha-1 (Homo sapiens) (UniProt Q15418); experiment: Inhibition of RSK1 Domain 2 K2 labeling site in human Huh-7 cells at 10 uM by KiNativ Profiling analysis relative to control; format: cell-based
Chain of Ribosomal protein S6 kinase alpha-1 (Homo sapiens) (Q15418 whole entry, the tested form may be a part): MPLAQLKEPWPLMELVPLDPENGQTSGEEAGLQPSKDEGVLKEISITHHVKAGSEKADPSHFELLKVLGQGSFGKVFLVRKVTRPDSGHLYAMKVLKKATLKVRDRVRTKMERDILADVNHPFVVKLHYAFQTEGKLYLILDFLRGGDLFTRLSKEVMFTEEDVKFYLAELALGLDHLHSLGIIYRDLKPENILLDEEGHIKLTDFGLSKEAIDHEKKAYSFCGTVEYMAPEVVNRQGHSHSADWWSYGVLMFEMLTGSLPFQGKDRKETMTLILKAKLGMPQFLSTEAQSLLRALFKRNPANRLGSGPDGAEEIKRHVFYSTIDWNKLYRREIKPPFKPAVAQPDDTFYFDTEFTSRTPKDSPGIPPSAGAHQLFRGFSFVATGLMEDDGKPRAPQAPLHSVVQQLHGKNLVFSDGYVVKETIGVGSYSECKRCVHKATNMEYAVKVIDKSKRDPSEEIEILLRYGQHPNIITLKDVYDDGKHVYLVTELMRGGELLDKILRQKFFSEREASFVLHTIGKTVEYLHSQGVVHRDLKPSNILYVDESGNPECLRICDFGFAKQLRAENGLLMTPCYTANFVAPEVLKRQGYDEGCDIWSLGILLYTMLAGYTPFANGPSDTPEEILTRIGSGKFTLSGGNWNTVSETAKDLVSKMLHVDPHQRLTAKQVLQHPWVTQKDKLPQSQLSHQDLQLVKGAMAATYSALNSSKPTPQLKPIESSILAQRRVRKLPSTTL

[4] = molecular target: Mitogen-activated protein kinase 7 (Homo sapiens) (UniProt Q13164); experiment: Inhibition of Erk5 Lys2 labeling site in human A-375 cells at 0.05 uM by KiNativ Profiling analysis relative to control; format: cell-based
Chain of Mitogen-activated protein kinase 7 (Homo sapiens) (Q13164 2-816 limits assumed): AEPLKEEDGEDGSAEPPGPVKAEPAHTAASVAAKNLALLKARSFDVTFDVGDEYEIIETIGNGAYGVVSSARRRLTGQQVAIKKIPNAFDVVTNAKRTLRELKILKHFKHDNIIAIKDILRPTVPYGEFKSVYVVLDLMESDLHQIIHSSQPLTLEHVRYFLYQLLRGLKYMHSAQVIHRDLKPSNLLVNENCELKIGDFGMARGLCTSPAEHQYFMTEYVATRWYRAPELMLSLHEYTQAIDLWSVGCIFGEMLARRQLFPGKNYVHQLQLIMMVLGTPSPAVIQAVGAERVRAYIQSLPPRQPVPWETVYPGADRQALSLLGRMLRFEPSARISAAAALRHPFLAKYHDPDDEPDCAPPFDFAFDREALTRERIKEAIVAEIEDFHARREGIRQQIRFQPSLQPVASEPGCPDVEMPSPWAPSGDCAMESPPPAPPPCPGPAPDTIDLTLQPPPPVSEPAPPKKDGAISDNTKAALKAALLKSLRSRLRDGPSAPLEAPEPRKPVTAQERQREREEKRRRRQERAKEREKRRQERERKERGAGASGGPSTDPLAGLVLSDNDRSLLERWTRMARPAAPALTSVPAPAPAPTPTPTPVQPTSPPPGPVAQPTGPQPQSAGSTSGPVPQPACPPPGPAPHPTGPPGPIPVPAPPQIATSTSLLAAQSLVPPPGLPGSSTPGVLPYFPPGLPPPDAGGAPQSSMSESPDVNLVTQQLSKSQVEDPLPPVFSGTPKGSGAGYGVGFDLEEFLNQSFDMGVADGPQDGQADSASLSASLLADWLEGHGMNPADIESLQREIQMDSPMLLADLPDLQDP

[5] = molecular target: T1, Serine/threonine-protein kinase LATS1 (Homo sapiens) (UniProt O95835); experiment: Inhibition of LATS1 (unknown origin) at 10 uM by Ambit Kinomescan binding assay
T1 sequence (whole entry): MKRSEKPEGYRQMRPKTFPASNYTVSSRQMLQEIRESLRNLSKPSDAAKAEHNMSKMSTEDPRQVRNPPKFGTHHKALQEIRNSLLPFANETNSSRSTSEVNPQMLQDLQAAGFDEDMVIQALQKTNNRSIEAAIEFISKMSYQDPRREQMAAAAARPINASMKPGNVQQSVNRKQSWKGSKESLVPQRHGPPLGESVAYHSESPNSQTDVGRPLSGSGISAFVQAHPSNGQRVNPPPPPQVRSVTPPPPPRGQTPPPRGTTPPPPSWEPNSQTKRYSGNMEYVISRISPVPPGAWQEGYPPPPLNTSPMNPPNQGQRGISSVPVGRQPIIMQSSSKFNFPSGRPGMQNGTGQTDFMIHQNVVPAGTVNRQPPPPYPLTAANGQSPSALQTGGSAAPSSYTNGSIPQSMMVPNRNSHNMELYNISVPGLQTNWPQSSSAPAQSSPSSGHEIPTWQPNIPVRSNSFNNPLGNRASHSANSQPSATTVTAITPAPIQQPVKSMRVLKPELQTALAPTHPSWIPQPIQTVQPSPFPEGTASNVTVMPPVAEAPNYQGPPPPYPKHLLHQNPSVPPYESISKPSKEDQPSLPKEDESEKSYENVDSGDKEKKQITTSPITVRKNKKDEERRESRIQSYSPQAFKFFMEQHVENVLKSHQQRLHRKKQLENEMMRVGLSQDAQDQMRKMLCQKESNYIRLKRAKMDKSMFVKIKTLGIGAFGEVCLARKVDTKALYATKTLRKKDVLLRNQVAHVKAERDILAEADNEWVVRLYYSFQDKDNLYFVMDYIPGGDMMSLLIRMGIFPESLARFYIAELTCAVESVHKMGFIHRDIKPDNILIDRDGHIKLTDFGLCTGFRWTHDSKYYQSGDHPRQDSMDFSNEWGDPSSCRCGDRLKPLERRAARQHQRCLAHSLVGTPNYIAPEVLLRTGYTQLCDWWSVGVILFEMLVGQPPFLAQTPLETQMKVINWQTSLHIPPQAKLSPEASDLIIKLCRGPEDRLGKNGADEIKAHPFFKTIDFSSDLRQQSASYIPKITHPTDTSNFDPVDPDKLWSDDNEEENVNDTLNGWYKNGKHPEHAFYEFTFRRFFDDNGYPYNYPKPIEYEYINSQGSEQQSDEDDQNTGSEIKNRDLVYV

[6] = molecular target: Tyrosine-protein kinase CSK (Homo sapiens, UniProt P41240); experiment: Inhibition of CSK ACT labeling site in human A-375 cells at 5 uM by KiNativ Profiling analysis relative to control; format: cell-based
Chain of Tyrosine-protein kinase CSK (P41240 2-450 limits assumed): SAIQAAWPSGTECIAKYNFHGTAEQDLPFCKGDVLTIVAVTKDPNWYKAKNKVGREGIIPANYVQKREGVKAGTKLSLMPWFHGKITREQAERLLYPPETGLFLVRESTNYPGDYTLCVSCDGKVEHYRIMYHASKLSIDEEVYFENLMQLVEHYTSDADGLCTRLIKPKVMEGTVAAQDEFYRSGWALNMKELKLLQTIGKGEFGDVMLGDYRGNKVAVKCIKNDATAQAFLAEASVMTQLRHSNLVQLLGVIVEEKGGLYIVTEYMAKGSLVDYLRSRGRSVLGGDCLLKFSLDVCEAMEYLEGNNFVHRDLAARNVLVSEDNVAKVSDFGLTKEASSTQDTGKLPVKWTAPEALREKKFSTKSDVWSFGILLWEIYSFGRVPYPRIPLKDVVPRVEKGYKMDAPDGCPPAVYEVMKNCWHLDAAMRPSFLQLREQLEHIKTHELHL

[7] = molecular target: Cyclin-dependent kinase 10 (Homo sapiens) (UniProt Q15131); experiment: Inhibition of CDK10 Lys2 labeling site in human Huh-7 cells at 1 uM by KiNativ Profiling analysis relative to control; format: cell-based
Chain of Cyclin-dependent kinase 10 (Homo sapiens) (Q15131 whole entry, the tested form may be a part): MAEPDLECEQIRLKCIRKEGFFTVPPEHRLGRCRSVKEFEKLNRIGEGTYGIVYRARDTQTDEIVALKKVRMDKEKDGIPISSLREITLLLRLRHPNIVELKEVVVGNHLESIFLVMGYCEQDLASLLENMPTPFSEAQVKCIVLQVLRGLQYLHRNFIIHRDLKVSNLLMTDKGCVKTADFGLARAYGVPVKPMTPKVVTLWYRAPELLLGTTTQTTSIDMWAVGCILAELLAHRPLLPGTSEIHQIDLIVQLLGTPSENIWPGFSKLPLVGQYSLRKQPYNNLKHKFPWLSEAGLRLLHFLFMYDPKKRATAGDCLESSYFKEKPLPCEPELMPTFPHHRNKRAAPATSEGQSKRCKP

[8] = molecular target: Ribosomal protein S6 kinase alpha-1 (Homo sapiens) (UniProt Q15418); experiment: Inhibition of RSK1 domain 1 Lys2 labeling site harbouring DLKPENILLDEEGHIKLTDFGLSK in human Huh-7 cell lysate at 1 uM by KiNativ Profiling analysis relative to control; format: subcellular
[9] = molecular target: T2, Eukaryotic translation initiation factor 2-alpha kinase 3 (Homo sapiens) (UniProt Q9NZJ5); experiment: Inhibition of PEK Lys2 labeling site in human Huh-7 cells at 1 uM by KiNativ Profiling analysis relative to control; format: cell-based
T2 sequence (whole entry): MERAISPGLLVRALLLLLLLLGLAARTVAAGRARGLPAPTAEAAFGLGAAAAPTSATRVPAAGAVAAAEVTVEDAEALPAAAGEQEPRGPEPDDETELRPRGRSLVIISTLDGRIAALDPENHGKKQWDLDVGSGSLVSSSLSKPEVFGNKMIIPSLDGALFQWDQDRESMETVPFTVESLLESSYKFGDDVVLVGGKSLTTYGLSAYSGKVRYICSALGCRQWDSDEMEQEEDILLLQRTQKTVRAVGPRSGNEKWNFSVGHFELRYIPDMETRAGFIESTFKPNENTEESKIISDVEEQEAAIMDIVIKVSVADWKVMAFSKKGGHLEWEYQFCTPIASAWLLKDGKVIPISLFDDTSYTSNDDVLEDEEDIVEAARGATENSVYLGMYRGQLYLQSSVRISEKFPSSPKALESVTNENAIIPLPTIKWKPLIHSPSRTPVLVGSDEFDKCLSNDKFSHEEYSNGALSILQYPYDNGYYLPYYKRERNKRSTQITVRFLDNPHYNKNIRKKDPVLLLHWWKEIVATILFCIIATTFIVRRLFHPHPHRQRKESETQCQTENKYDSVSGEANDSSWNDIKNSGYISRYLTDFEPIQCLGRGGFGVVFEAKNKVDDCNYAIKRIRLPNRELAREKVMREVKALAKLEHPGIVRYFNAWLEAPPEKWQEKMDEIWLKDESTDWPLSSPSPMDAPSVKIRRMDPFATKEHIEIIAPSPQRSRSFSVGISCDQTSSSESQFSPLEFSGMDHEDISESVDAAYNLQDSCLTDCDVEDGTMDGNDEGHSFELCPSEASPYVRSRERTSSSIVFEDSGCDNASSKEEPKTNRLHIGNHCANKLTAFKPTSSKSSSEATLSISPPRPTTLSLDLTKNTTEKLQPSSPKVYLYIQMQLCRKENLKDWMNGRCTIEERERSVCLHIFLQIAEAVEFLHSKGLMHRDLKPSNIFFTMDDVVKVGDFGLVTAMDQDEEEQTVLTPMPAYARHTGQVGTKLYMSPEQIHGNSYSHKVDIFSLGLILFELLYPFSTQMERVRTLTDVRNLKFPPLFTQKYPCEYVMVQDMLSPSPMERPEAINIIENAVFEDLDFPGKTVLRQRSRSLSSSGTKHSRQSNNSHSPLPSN

[10] = molecular target: Serine/threonine-protein kinase Nek7 (Homo sapiens) (UniProt Q8TDX7); experiment: Inhibition of NEK7 Lys2 labeling site harbouring VMHRDIKPANVFITATGVVK in human Huh-7 cells at 1 uM by KiNativ Profiling analysis relative to control; format: cell-based
Chain of Serine/threonine-protein kinase Nek7 (Homo sapiens) (Q8TDX7 whole entry, looked up): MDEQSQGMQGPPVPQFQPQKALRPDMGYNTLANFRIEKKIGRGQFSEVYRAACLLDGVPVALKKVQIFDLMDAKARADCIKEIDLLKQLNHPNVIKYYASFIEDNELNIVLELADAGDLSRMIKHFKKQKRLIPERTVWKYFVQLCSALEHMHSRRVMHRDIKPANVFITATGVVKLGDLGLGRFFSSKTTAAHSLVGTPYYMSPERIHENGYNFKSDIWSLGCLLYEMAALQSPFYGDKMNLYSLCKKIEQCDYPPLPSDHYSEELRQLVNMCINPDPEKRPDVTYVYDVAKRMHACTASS

| SMILES | inhibition [1] [%] | inhibition at 10 µM [2] [%] | inhibition [3] [%] | inhibition [4] [%] | inhibition [5] | inhibition [6] [%] | inhibition [7] [%] | inhibition [8] [%] | inhibition [9] [%] | inhibition [10] [%] |
| --- | --- | --- | --- | --- | --- | --- | --- | --- | --- | --- |
| CCN1CCN(Cc2ccc(NC(=O)c3ccc(C)c(Oc4ccnc5[nH]ccc45)c3)cc2C(F)(F)F)CC1 | -4.5 | 6.6 | 8 | 5.3 | inactive | 57.7 | – | – | – | – |
| CNc1cc(Oc2cc(C(=O)Nc3cc(N4CCN(C)CC4)cc(C(F)(F)F)c3)ccc2C)ncn1 | – | – | – | – | – | – | 59.3 | 3.1 | 16.8 | 6.9 |
